The text below walks through data of patent US20250195530A1, “POLQ INHIBITORS” (ASTRAZENECA AB, priority 2022, published 2025).

Read-outs that look alike come from different tables or passages of the source.

In test [1] the test system is DLD-1 BRCA2−/− cells. As to the kind of experiment: Homologous recombination synthetic lethal inhibition of proliferation, DLD-1 BRCA2-/- (Cell Titre Glo 3D). It is filed as cell-based. The note with it: Homo sapiens. In short, it runs like this: (§1)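 DLD-1 BRCA2−/− and parental DLD-1 cells exposed to 10-point dose range (10 μM to 0.51 nM, 3-fold) in RPMI/10% FBS at 37 °C, with medium and compound replenished on day 6. Viability by Cell Titre Glo 3D luminescence at day 7 (DLD-1) or day 12 (BRCA2−/−); IC50 as concentration halving maximum signal.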

Test [2] has as its system DLD-1 cells. As to the kind of experiment: Inhibition of proliferation, DLD-1 BRCA2 wt control (Cell Titre Glo 3D). It is filed as cell-based. The note with it: Homo sapiens. In outline: as §1
Where [3] appears, read: DLD-1, 288 h, DLD-1 BRCA2−/− cells, 12 days, read-out: POLQ PD Prolif Lumin BRCA2 −/− mean pIC50 (converted).
Setting [4] is: DLD-1, 168 h, DLD-1 BRCA2 wt cells, 7 days, read-out: POLQ PD Prolif Lumin DLD1 mean pIC50 (converted).
The mark [5] stands for this setting: DLD-1, DLD-1 BRCA2-/- proliferation, column head only partly shown, read-out: POLQ PD Prolif Lumin (converted).
The mark [6] stands for this setting: DLD-1, DLD-1 BRCA2 wt control proliferation, column head only partly shown, read-out: POLQ PD Prolif Lumin (converted).

With `CC1(Oc2ncnc3c2nc(-c2ccc(OCCN4CC5(CNC5)C4)cc2Cl)n3Cc2ccccc2)CC1` [Example 18, 8-(4-(2-(2,6-Diazaspiro[3.3]heptan-2-yl)ethoxy)-2-chlorophenyl)-9-benzyl-6-(1-methylcyclopropoxy)-9H-purine], the IC50 is 398 nM in test [1] (setting [3]) and 5010 nM in test [2] (setting [4]).
As for `CC(CCOc1ccc(-c2nc3c(OC4(C)CC4)ncnc3n2Cc2c(Cl)cccc2Br)c(Cl)c1)C(=O)O` (racemic) [Example T259, 4-(4-(9-(2-bromo-6-chlorobenzyl)-6-(1-methylcyclopropoxy)-9H-purin-8-yl)-3-chlorophenoxy)-2-methylbutanoic acid], the IC50 in test [1] (setting [5]) is 3160 nM; in test [2] (setting [6]), > 10000 nM.
On to `CC(=O)N1CCN(c2cc(C)c(-c3nc4c(OC5(C)CC5)ncnc4n3Cc3ccccc3)cn2)CC1` [Example C2, 1-(4-(5-(9-benzyl-6-(1-methylcyclopropoxy)-9H-purin-8-yl)-4-methylpyridin-2-yl)piperazin-1-yl)ethan-1-one], for which the results for the IC50 in test [1] (setting [3]) and in test [2] (setting [4]) were 316 nM and > 10000 nM, respectively.
For `Cc1cc(OCCN2CCN(C)CC2)ccc1-c1nc2c(OC(C)C)ncnc2n1Cc1ccccc1` [Example 1, 9-Benzyl-6-isopropoxy-8-(2-methyl-4-(2-(4-methylpiperazin-1-yl)ethoxy)phenyl)-9H-purine] the same measures were 631 nM and 6310 nM.
As for `Cc1ccnc(Cn2c(-c3ccc(CC(=O)N4CCC4)cc3Cl)nc3c(OC4(C)CC4)ncnc32)c1` [Example T308, 1-(azetidin-1-yl)-2-(3-chloro-4-(6-(1-methylcyclopropoxy)-9-((4-methylpyridin-2-yl)methyl)-9H-purin-8-yl)phenyl)ethan-1-one], the IC50 was 316 nM in test [1] (DLD-1, first proliferation column (c5), taken as DLD-1 BRCA2-/-, read-out: POLQ PD Prolif Lumin (converted)) and > 10000 nM in test [2] (DLD-1, second proliferation column (c6), taken as DLD-1 BRCA2 wt, read-out: POLQ PD Prolif Lumin (converted)).
Regarding `CC1(Oc2ncnc3c2nc(-c2ccc(OCCN4CCNCC4)cc2Cl)n3CCc2cccnc2)CC1` [Example J8, 8-(2-chloro-4-(2-(piperazin-1-yl)ethoxy)phenyl)-6-(1-methylcyclopropoxy)-9-(2-(pyridin-3-yl)ethyl)-9H-purine], the IC50 in test [1] (setting [3]) is > 10000 nM; in test [2] (setting [4]) it was 7940 nM.
As to `CN1CCCC1CCOc1ccc(-c2nc3c(OC4(C)CC4)ncnc3n2Cc2ccccc2)c(Cl)c1` (racemic) [Example D2, 9-benzyl-8-(2-chloro-4-(2-(1-methylpyrrolidin-2-yl)ethoxy)phenyl)-6-(1-methylcyclopropoxy)-9H-purine], the results for the IC50 in test [1] (setting [3]) and in test [2] (setting [4]) were 15.8 nM and 1260 nM, respectively.
For the compound `CC1(Oc2ncnc3c2nc(-c2ccc(OCCN4CC5(CCN5)C4)cc2Cl)n3Cc2ccccc2)CC1` [Example H18, 8-(4-(2-(1,6-diazaspiro[3.3]heptan-6-yl)ethoxy)-2-chlorophenyl)-9-benzyl-6-(1-methylcyclopropoxy)-9H-purine], the IC50 in test [1] (setting [3]) is 316 nM; in test [2] (setting [4]), 3160 nM.
For `CC(=O)NCCCOc1ccc(-c2nc3cc(OC(C)C)ccc3n2Cc2ccccc2)c(Cl)c1` [Example A3, N-(3-(4-(1-benzyl-5-isopropoxy-1H-benzo[d]imidazol-2-yl)-3-chlorophenoxy)propyl)acetamide] the same measures were 501 nM and 5010 nM.
With `Cc1ccnc(Cn2c(-c3ccc(CC(=O)N4CC(C)(O)C4)cc3Cl)nc3c(OC4(C)CC4)ncnc32)c1` [Example T470, 2-(3-chloro-4-(6-(1-methylcyclopropoxy)-9-((4-methylpyridin-2-yl)methyl)-9H-purin-8-yl)phenyl)-1-(3-hydroxy-3-methylazetidin-1-yl)ethan-1-one], the IC50 was 1000 nM in test [1] (DLD-1, proliferation, luminescence, taken as DLD-1 BRCA2-/-, read-out: POLQ PD Prolif Lumin (converted)) and > 10000 nM in test [2] (DLD-1, proliferation, luminescence, second Prolif column (c6), taken as DLD-1 BRCA2 wt control, read-out: POLQ PD Prolif Lumin (converted)).
Consider `CC(CCOc1ccc(-c2nc3c(OC4(C)CC4)ncnc3n2Cc2ccccc2C2CC2)c(Cl)c1)C(=O)O` (racemic) [Example T598, 4-(3-chloro-4-(9-(2-cyclopropylbenzyl)-6-(1-methylcyclopropoxy)-9H-purin-8-yl)phenoxy)-2-methylbutanoic acid], for which the IC50 is 631 nM in test [1] (DLD-1, first proliferation column, DLD-1 BRCA2-/-, read-out: POLQ PD Prolif Lumin (converted)) and > 10000 nM in test [2] (DLD-1, second proliferation column, DLD-1 BRCA2 wt control, read-out: POLQ PD Prolif Lumin (converted)).
For `N#CC1(Oc2ncnc3c2nc(-c2ccc(OCCN4CCNCC4)cc2Cl)n3Cc2ccccc2)CC1` [Example 13, 1-((9-Benzyl-8-(2-chloro-4-(2-(piperazin-1-yl)ethoxy)phenyl)-9H-purin-6-yl)oxy)cyclopropane-1-carbonitrile], the IC50 in test [1] (setting [3]) is 251 nM; in test [2] (setting [4]) it was > 10000 nM.
On the same counts, the results for `Cc1cc(OCCCN2CCCC2)ncc1-c1nc2c(OC3(C)CC3)ncnc2n1Cc1ccccc1` [Example G5, 9-benzyl-8-(4-methyl-6-(3-(pyrrolidin-1-yl)propoxy)pyridin-3-yl)-6-(1-methylcyclopropoxy)-9H-purine] are 398 nM and 7940 nM.
Regarding `CC1(Oc2ncnc3c2nc(-c2ccc(OC4CCNCC4)cc2Cl)n3Cc2ccccc2)CC1` [Example D33, 9-benzyl-8-(2-chloro-4-(piperidin-4-yloxy)phenyl)-6-(1-methylcyclopropoxy)-9H-purine], the IC50 was 63.1 nM in test [1] (setting [3]) and 3160 nM in test [2] (setting [4]).
Turning to `CN1CCN(CCOc2ccc(-c3nc4c(OC5(C)CC5)ncnc4n3Cc3ccccc3)c(F)c2)CC1` [Example H2, 9-benzyl-8-(2-fluoro-4-(2-(4-methylpiperazin-1-yl)ethoxy)phenyl)-6-(1-methylcyclopropoxy)-9H-purine], the IC50 was 126 nM in test [1] (setting [3]) and 3160 nM in test [2] (setting [4]).
In the case of `C[C@@H](CCOc1cccc(-c2nc3c(OC4(C)CC4)ncnc3n2Cc2cccc(Cl)c2)c1Cl)C(=O)O` [Example T296, (S)-4-(2-chloro-3-(9-(3-chlorobenzyl)-6-(1-methylcyclopropoxy)-9H-purin-8-yl)phenoxy)-2-methylbutanoic acid], the IC50 in test [1] (setting [5]) is 25.1 nM; in test [2] (setting [6]), > 10000 nM.
On to `Cc1cc(OCCN2CCNCC2)ncc1-c1nc2c(OC3(C)CC3)ncnc2n1Cc1cccc(Cl)c1` [Example J6, 9-(3-chlorobenzyl)-8-(4-methyl-6-(2-(piperazin-1-yl)ethoxy)pyridin-3-yl)-6-(1-methylcyclopropoxy)-9H-purine], for which the IC50 is 631 nM in test [1] (setting [3]) and > 10000 nM in test [2] (setting [4]).
For `CC1(Oc2ncnc3c2nc(-c2ccc(OCCN4CC5(CNC(=O)C5)C4)cc2Cl)n3Cc2ccccc2)CC1` [Example R8, 2-(2-(4-(9-benzyl-6-(1-methylcyclopropoxy)-9H-purin-8-yl)-3-chlorophenoxy)ethyl)-2,6-diazaspiro[3.4]octan-7-one] the same measures were 251 nM and 3980 nM.
As for `C[C@@H](CCOc1ccc(-c2nc3c(OC4(C)CC4)ncnc3n2Cc2cccc(Cl)c2)c(Cl)c1)C(=O)NCC(=O)O` [Example U86, (S)-(4-(3-chloro-4-(9-(3-chlorobenzyl)-6-(1-methylcyclopropoxy)-9H-purin-8-yl)phenoxy)-2-methylbutanoyl)glycine], the IC50 in test [1] (DLD-1, DLD-1 BRCA2 −/−, mean, read-out: POLQ PD Prolif Lumin BRCA2 −/− mean pIC50 (converted)) is 2510 nM; in test [2] (DLD-1, DLD1 BRCA2 wt, mean, read-out: POLQ PD Prolif Lumin DLD1 mean pIC50 (converted)), > 10000 nM.
For the compound `Cc1cccnc1Cn1c(-c2ccc(OCCN3CCNCC3)cc2Cl)nc2c(OC3(C)CC3)ncnc21` [Example L9, 8-(2-chloro-4-(2-(piperazin-1-yl)ethoxy)phenyl)-6-(1-methylcyclopropoxy)-9-((3-methylpyridin-2-yl)methyl)-9H-purine], the results for the IC50 in test [1] (setting [3]) and in test [2] (setting [4]) were 3160 nM and > 10000 nM, respectively.
For `CC1(Oc2ncnc3c2nc(-c2ccc(OCCN4CCNC(=O)CC4)cc2Cl)n3Cc2ccccc2)CC1` [Example H21, 1-(2-(4-(9-benzyl-6-(1-methylcyclopropoxy)-9H-purin-8-yl)-3-chlorophenoxy)ethyl)-1,4-diazepan-5-one] the same measures were 63.1 nM and > 10000 nM.
In the case of `Cc1ccnc(Cn2c(-c3ccc(OC4CN(C(N)=O)C4)cc3Cl)nc3c(OC4(C)CC4)ncnc32)c1` [Example T205, 3-(3-chloro-4-(6-(1-methylcyclopropoxy)-9-((4-methylpyridin-2-yl)methyl)-9H-purin-8-yl)phenoxy)azetidine-1-carboxamide], the IC50 was 398 nM in test [1] (setting [5]) and > 10000 nM in test [2] (setting [6]).
Turning to `CC1(Oc2ncnc3c2nc(-c2ccc(OCC(C)(C)C(=O)O)cc2Cl)n3Cc2cccc(Cl)c2)CC1` [Example 32, 3-(3-Chloro-4-(9-(3-chlorobenzyl)-6-(1-methylcyclopropoxy)-9H-purin-8-yl)phenoxy)-2,2-dimethylpropanoic acid], the IC50 is 631 nM in test [1] (DLD-1, 288 h, DLD-1 BRCA2−/−, 12 days, Cell Titre Glo 3D, read-out: POLQ PD Prolif Lumin BRCA2 −/− Mean pIC50 (converted)) and > 10000 nM in test [2] (DLD-1, 168 h, DLD-1 (BRCA2 wt control), 7 days, Cell Titre Glo 3D, read-out: POLQ PD Prolif Lumin DLD1 Mean pIC50 (converted)).
